The values below come from patent US6545008B1, “Pyrimidine derivatives and processes for the preparation thereof” (Yuhan Corporation, priority 1998, dated 2003).

Structures are written as SMILES. pIC50: −log10 of the molar value. Where a name gives a salt, the structure may show the parent alone.

This experiment deals with T1, proton pump (H+/K+-ATPase) (UniProt P19156).
T1 construct: The gastric vesicle as an enzyme source was prepared by the same method as in the Experiment 1—1 of WO 94/14795
Nature of the experiment: Inhibition of proton pump (H+/K+-ATPase) activity, gastric vesicle enzyme source. The experiment is classed as biochemical. The settings on record: pH 6.4, 37° C., 30 min preincubation, linear regression over 5 concentrations, read-out: IC50, inhibitory effects on proton pump (H+/K+-ATPase) activity. The method, then:
Test Example 1: Inhibition of proton pump (H^+/K^+-ATPase) activity
The gastric vesicle as an enzyme source was prepared by the same method as in the Experiment 1—1 of WO 94/14795. Further, the inhibitory effect of proton pump activity was measured by the same method as in Experiment 1-2 of WO 94/14795.
Namely, the proton pump activity stimulated by Mg^++ was used as a negative control group, and the activity stimulated by Mg^++ and K^+ was used as a positive control group. Omeprazole was used as the control compound.
Test tubes were divided into 4 groups: Group 1 as negative control group (n=3), Group 2 as positive control group (n=3), Group 3 (n=5×2) to be administered with the compound of the present invention and Group 4 (n=5×2) to be administered with the control compound.
The inhibitory effects of Group 3 and 4 on proton pump activity were measured by employing the compounds prepared in Examples and omeprazole, respectively, each of which was dissolved in dimethyl sulfoxide (DMSO) at 5 different concentrations.
To each of Groups 1, 2, 3, and 4 was added 0.1 ml of magnesium chloride (4 mM) dissolved in 40 mM Tris-HCl buffer (pH 6.4) and 100 μg of enzyme source. The 50 μl of potassium chloride (60 mM) and 50 μl of ammonium chloride (6 mM) dissolved in 40 mM Tris-HCl buffer (pH 6.4) were added to all groups except for Group 1.
10 μl of dimethyl sulfoxide was added to each of Group 1 and 2; and to Group 3 was added […] of dimethyl sulfoxide solution prepared by dissolving compound of Example at 5 different concentrations (n=5×2). To Group 4, was added 10 μl of the solution prepared by dissolving omeprazole in dimethyl sulfoxide at 5 different concentrations (40, 20, 10, 5, 2.5 μM) (n=5×2). […] Tris-HCl buffer (pH 6.4) was added thereto so as to make the total volume 400 μl.
Thereafter the test tubes of each Group were placed at 37° C. for 30 minutes for the preincubation. ATP solution (6.6 mM) was added until the total volume became 500 μl. After the reaction was carried out at 37° C. for 30 minutes, 25% cold trichloroactic acid was added to terminate the enzyme reaction. The released inorganic phosphorous was measured by an automatic analyzer (Express 550, Corning).
The difference between Group 1 and Group 2 represents the proton pump activity activated by K^+ only. The IC50s of Group 3 and 4 were calculated using the Linear Regression method. The concentrations of the test compounds inhibiting 50% of the proton pump activity are represented as IC50 in Table 1.
Regarding `Cc1nc(Nc2ccc(F)c(F)c2)nc(N2CCc3ccccc3C2C)c1C` (centres unmarked) [Example 1, 5,6-dimethyl-2-(3,4-difluorophenylamino)-4-(1-methyl-1,2,3,4-tetrahydroisoquinolin-2-yl)pyrimidine hydrochloride], the pIC50 was 5.80.
As for `Cc1nc(Nc2ccc(F)cc2F)nc(N2CCc3ccccc3C2C)c1C` (centres unmarked) [Example 2, 5,6-dimethyl-2-(2,4-difluorophenylamino)-4-(1-methyl-1,2,3,4-tetrahydroisoquinolin-2-yl)pyrimidine hydrochloride], the pIC50 was 5.42.
With `Cc1nc(Nc2ccccc2)nc(N2CCc3ccc(F)cc3C2C)c1C` (centres unmarked) [Example 4, 5,6-dimethyl-2-phenylamino-4-(1-methyl-7-fluoro-1,2,3,4-tetrahydroisoquinolin-2-yl)pyrimidine hydrochloride], the pIC50 is 6.00.
In the case of `Cc1ccccc1Nc1nc(C)c(C)c(N2CCc3ccc(F)cc3C2C)n1` (centres unmarked) [Example 5, 5,6-dimethyl-2-(2-methylphenylamino)-4-(1-methyl-7-fluoro-1,2,3,4-tetrahydroisoquinolin-2-yl)pyrimidine hydrochloride], the pIC50 is 6.22.
For `Cc1cc(F)ccc1Nc1nc(C)c(C)c(N2CCc3ccc(F)cc3C2C)n1` (centres unmarked) [Example 6, 5,6-dimethyl-2-(2-methyl-4-fluorophenylamino)-4-(1-methyl-7-fluoro-1,2,3,4-tetrahydroisoquinolin-2-yl)pyrimidine hydrochloride], the pIC50 is 6.52.
`Cc1nc(Nc2ccc(F)c(F)c2)nc(N2CCc3ccc(F)cc3C2C)c1C` (centres unmarked) [Example 7, 5,6-dimethyl-2-(3,4-difluorophenylamino)-4-(1-methyl-7-fluoro-1,2,3,4-tetrahydroisoquinolin-2-yl)pyrimidine hydrochloride]: the pIC50 is 5.59.
The value for `Cc1nc(Nc2ccc(F)cc2F)nc(N2CCc3ccc(F)cc3C2C)c1C` (centres unmarked) [Example 8, 5,6-dimethyl-2-(2,4-difluorophenylamino)-4-(1-methyl-7-fluoro-1,2,3,4-tetrahydroisoquinolin-2-yl)pyrimidine hydrochloride] was 6.15; that for `Cc1nc(Nc2ccc(Cl)cc2)nc(N2CCc3ccc(F)cc3C2C)c1C` (centres unmarked) [Example 9, 5,6-dimethyl-2-(4-chlorophenylamino)-4-(1-methyl-7-fluoro-1,2,3,4-tetrahydroisoquinolin-2-yl)pyrimidine hydrochloride] was 6.05; that for `Cc1nc(Nc2ccccc2F)nc(N2CCc3ccc(F)cc3C2C)c1C` (centres unmarked) [Example 11, 5,6-dimethyl-2-(2-fluorophenylamino)-4-(1-methyl-7-fluoro-1,2,3,4-tetrahydroisoquinolin-2-yl)pyrimidine hydrochloride] was 5.72.
The value for `Cc1nc(Nc2cccc(F)c2)nc(N2CCc3ccc(F)cc3C2C)c1C` (centres unmarked) [Example 12, 5,6-dimethyl-2-(3-fluorophenylamino)4-(1-methyl-7-fluoro-1,2,3,4-tetrahydroisoquinolin-2-yl)pyrimidine hydrochloride] was 5.49.
As to `Cc1nc(Nc2ccc(F)cc2)nc(N2CCc3cc(F)ccc3C2C)c1C` (centres unmarked) [Example 14, 5,6-dimethyl-2-(4-fluorophenylamino)-4-(1-methyl-6-fluoro-1,2,3,4-tetrahydroisoquinolin-2-yl)pyrimidine hydrochloride], the pIC50 is 6.15.
Take `Cc1cc(F)ccc1Nc1nc(C)c(C)c(N2CCc3cc(F)ccc3C2C)n1` (centres unmarked) [Example 17, 5,6-dimethyl-2-(2-methyl-4-fluorophenylamino)-4-(1-methyl-6-fluoro-1,2,3,4-tetrahydroisoquinolin-2-yl)pyrimidine hydrochloride]: the pIC50 was 6.70.
Turning to `Cc1nc(Nc2ccc(F)cc2F)nc(N2CCc3cc(F)ccc3C2C)c1C` (centres unmarked) [Example 19, 5,6-dimethyl-2-(2,4-difluorophenylamino)-4-(1-methyl-6-fluoro-1,2,3,4,-tetrahydroisoquinolin-2-yl)pyrimidine hydrochloride], the pIC50 was 6.00.
The value for `Cc1nc(Nc2ccc(Cl)cc2)nc(N2CCc3cc(F)ccc3C2C)c1C` (centres unmarked) [Example 20, 5,6-dimethyl-2-(4-chlorophenylamino)4-(1-methyl-6-fluoro-1,2,3,4-tetrahydroisoquinolin-2-yl)pyrimidine hydrochloride] was 5.92; that for `Cc1c(CF)nc(Nc2ccc(F)cc2)nc1N1CCc2ccccc2C1C` (centres unmarked) [Example 24, 5-methyl-6-fluoromethyl-2-(4-fluorophenylamino)-4-(1-methyl-1,2,3,4-tetrahydroisoquinolin-2-yl)-pyrimidine hydrochloride] was 6.05; that for `Cc1nc(Nc2ccc(F)cc2)nc(N2CCc3ccccc3C2C)c1CF` (centres unmarked) [Example 25, 5-fluoromethyl-6-methyl-2-(4-fluorophenylamino)-4-(1-methyl-1,2,3,4-tetrahydroisoquinolin-2-yl)-pyrimidine hydrochloride] was 5.39.
Turning to `Cc1nc(Nc2ccc(F)cc2)nc(N2CCc3ccccc3C2CF)c1C` (centres unmarked) [Example 26, 5,6-dimethyl-2-(4-fluorophenylamino)-4-(1-fluoromethyl-1,2,3,4-tetrahydroisoquinolin-2-yl)pyrimidine hydrochloride], the pIC50 was 5.43.
Regarding `Cc1nc(Nc2ccc(F)cc2)nc(N2CCc3c(Cl)cccc3C2C)c1C` (centres unmarked) [Example 35, 5,6-dimethyl-2-(4-fluorophenylamino)-4-(1-methyl-5-chloro-1,2,3,4-tetrahydroisoquinolin-2-yl)pyrimidine hydrochloride], the pIC50 is 6.05.
As to `Cc1nc(Nc2ccc(F)cc2F)nc(N2CCc3c(Cl)cccc3C2C)c1C` (centres unmarked) [Example 39, 5,6-dimethyl-2-(2,4-difluorophenylamino)-4-(1-methyl-5-chloro-1,2,3,4-tetrahydroisoquinolin-2-yl)pyrimidine hydrochloride], the pIC50 is 6.05.
In the case of `COc1ccc2[nH]c([S+]([O-])Cc3ncc(C)c(OC)c3C)nc2c1` (centres unmarked) [Omeprazole, reference compound], the pIC50 is 4.94.
